Laboratory results taken from ChEMBL document CHEMBL1135708, “Synthesis of 1-(3,4-dihydroxy-5-nitrophenyl)-2-phenyl-ethanone and derivatives as potent and long-acting peripheral inhibitors of catechol-O-methyltransferase” (J Med Chem, 2002).

Legend:
[1] = target: T1, Catechol O-methyltransferase (Rattus norvegicus) (UniProt P22734); assay: Percent inhibition of Catechol O-methyltransferase activity in rat brain at dose of 30 mg/kg determined at 6 h after its administration; assay type: organism-based; parameters: dose 30 mg/kg
T1 sequence (whole entry): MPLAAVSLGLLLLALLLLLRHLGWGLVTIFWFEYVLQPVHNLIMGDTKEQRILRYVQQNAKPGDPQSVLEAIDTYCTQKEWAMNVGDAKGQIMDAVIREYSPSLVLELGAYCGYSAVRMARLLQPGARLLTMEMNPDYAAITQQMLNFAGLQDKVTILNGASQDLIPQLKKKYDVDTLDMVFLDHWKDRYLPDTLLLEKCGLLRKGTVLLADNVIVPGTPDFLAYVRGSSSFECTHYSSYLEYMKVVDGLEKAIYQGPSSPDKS

[2] = target: T1, Catechol O-methyltransferase (Rattus norvegicus); assay: Percent inhibition of Catechol O-methyltransferase activity in rat liver at dose of 30 mg/kg determined at 6 hr after its administration; assay type: organism-based; parameters: dose 30 mg/kg

For `CC(=O)Oc1cc(C(=O)C(C)c2ccccc2)cc([N+](=O)[O-])c1OC(C)=O` (stereo not given), which inhibition [1] is on record?
Its inhibition is 44%.

And the inhibition [2]?
The inhibition was 42%.

Which inhibition [1] does the source give for `O=C(CC1CCCCC1)c1cc(O)c(O)c([N+](=O)[O-])c1` here?
The inhibition was 39%.

What about the inhibition [2] of the same compound?
Its inhibition is 72%.

Which inhibition [1] does the source give for `O=c1oc(-c2cc(O)c(O)c([N+](=O)[O-])c2)cc2ccccc12` here?
The inhibition was 29%.

What about the inhibition [2] of the same compound?
The inhibition was 15%.

With `O=C(Cc1cccc2ccccc12)c1cc(O)c(O)c([N+](=O)[O-])c1` as the compound, how does the inhibition [1] read?
The inhibition was 10%.

What about the inhibition [2] of the same compound?
The inhibition was 70%.

What does the source list for `COc1ccc(CC(=O)c2cc(OC(C)=O)c(OC(C)=O)c([N+](=O)[O-])c2)cc1`?
inhibition [1]: 25%; inhibition [2]: 72%

For `O=C(c1cc(O)c(O)c([N+](=O)[O-])c1)C(c1ccccc1)c1ccccc1`, which inhibition [1] is on record?
The inhibition was 7%.

What about the inhibition [2] of the same compound?
Its inhibition is 13%.

`CC(=O)Oc1cc(C(=O)Cc2ccc([N+](=O)[O-])cc2)cc([N+](=O)[O-])c1OC(C)=O` was tested. Which inhibition [1] did it give?
Its inhibition is 0%.

And the inhibition [2]?
Its inhibition is 49%.

Which results are given for `Cc1ccccc1CC(=O)c1cc(O)c(O)c([N+](=O)[O-])c1`?
inhibition [1]: 33%; inhibition [2]: 74%

With `CC(=O)Oc1cc(C(=O)C(Cc2ccccc2)c2ccccc2)cc([N+](=O)[O-])c1OC(C)=O` (stereo not given) as the compound, how does the inhibition [1] read?
The inhibition was 44%.

And the inhibition [2]?
The inhibition was 63%.

`O=[N+]([O-])c1cc(/C(Cc2ccccc2)=N\O)cc(O)c1O` was tested. Which inhibition [1] did it give?
Its inhibition is 13%.

And the inhibition [2]?
The inhibition was 48%.

For `O=C(Cc1ccc(Cl)cc1)c1cc(O)c(O)c([N+](=O)[O-])c1`, which inhibition [1] is on record?
Its inhibition is 12%.

What about the inhibition [2] of the same compound?
The inhibition was 69%.

Which results are given for `O=[N+]([O-])c1cc(CCc2ccccc2)cc(O)c1O`?
inhibition [1]: 10%; inhibition [2]: 0%

For `O=C(Cc1ccccc1C(=O)O)c1cc(O)c(O)c([N+](=O)[O-])c1`, which inhibition [1] is on record?
Its inhibition is 34%.

And the inhibition [2]?
The inhibition was 39%.

Which results are given for `CC(=O)Oc1cc(C(=O)Cc2ccccc2[N+](=O)[O-])cc([N+](=O)[O-])c1OC(C)=O`?
inhibition [1]: 20%; inhibition [2]: 28%

With `O=C(Cc1ccc(-c2ccccc2)cc1)c1cc(O)c(O)c([N+](=O)[O-])c1` as the compound, how does the inhibition [1] read?
Its inhibition is 28%.

And the inhibition [2]?
Its inhibition is 78%.

`Cc1ccc(CC(=O)c2cc(O)c(O)c([N+](=O)[O-])c2)cc1` was tested. Which inhibition [1] did it give?
Its inhibition is 23%.

And the inhibition [2]?
Its inhibition is 83%.

For `O=C(Cc1ccc2ccccc2c1)c1cc(O)c(O)c([N+](=O)[O-])c1`, which inhibition [1] is on record?
The inhibition was 17%.

What about the inhibition [2] of the same compound?
The inhibition was 83%.

Which results are given for `CC(=O)Oc1cc(C(=O)C(C)(C)c2ccccc2)cc([N+](=O)[O-])c1OC(C)=O`?
inhibition [1]: 23%; inhibition [2]: 19%

Which results are given for `CC(=O)Oc1cc(C(=O)C(Br)c2ccccc2)cc([N+](=O)[O-])c1OC(C)=O` (stereo not given)?
inhibition [1]: 20%; inhibition [2]: 48%

With `CC(=O)Oc1cc(C(=O)C2(c3ccccc3)CCCCC2)cc([N+](=O)[O-])c1OC(C)=O` as the compound, how does the inhibition [1] read?
Its inhibition is 19%.

And the inhibition [2]?
Its inhibition is 14%.
